Experimental data as given in the NIST ThermoML archive (doi:10.1016/j.fluid.2014.10.004).

What was measured:
[1] = refractive index (Na D-line) (dimensionless); xn = mol fraction of the nth substance listed; conditions: 101.3 kPa, Liquid, Standard Abbe refractometry
[2] = xn = mol fraction of the nth substance listed; conditions: 101.3 kPa, Liquid, Sing-around technique in a fixed-path interferometer
[3] = refractive index (Na D-line) (dimensionless); conditions: 101.33 kPa, Liquid, Standard Abbe refractometry
[4] = 101.3 kPa, Liquid, Sing-around technique in a fixed-path interferometer

C[N+](=O)[O-] [nitromethane] + ClC(Cl)Cl
Conditions | refractive index, 298.15 K | refractive index, 308.15 K | refractive index, 318.15 K | speed of sound, 298.15 K [m/s] | speed of sound, 308.15 K [m/s] | speed of sound, 318.15 K [m/s]
[1], x2 = 0 | 1.37951 | 1.37501 | 1.37016 | – | – | –
[1], x2 = 0.1197 | 1.39001 | 1.38474 | 1.37896 | – | – | –
[1], x2 = 0.1772 | 1.39474 | 1.38937 | 1.3835 | – | – | –
[1], x2 = 0.3007 | 1.40415 | 1.39828 | 1.39227 | – | – | –
[1], x2 = 0.4009 | 1.41107 | 1.40509 | 1.39897 | – | – | –
[1], x2 = 0.5 | 1.41742 | 1.41126 | 1.40531 | – | – | –
[1], x2 = 0.5978 | 1.42317 | 1.41698 | 1.41097 | – | – | –
[1], x2 = 0.7194 | 1.42971 | 1.42362 | 1.41741 | – | – | –
[1], x2 = 0.8607 | 1.4364 | 1.43035 | 1.42424 | – | – | –
[1], x2 = 0.9562 | 1.44032 | 1.43408 | 1.42786 | – | – | –
[2], x2 = 0 | – | – | – | 1321.3 | 1281.8 | 1242.4
[2], x2 = 0.1197 | – | – | – | 1253.7 | 1215.5 | 1177.5
[2], x2 = 0.1772 | – | – | – | 1225 | 1187.5 | 1150.1
[2], x2 = 0.3007 | – | – | – | 1171.2 | 1134.6 | 1098.1
[2], x2 = 0.4009 | – | – | – | 1133.6 | 1097.8 | 1062
[2], x2 = 0.5 | – | – | – | 1101.3 | 1065.9 | 1030.7
[2], x2 = 0.5978 | – | – | – | 1072.5 | 1037.7 | 1002.9
[2], x2 = 0.7194 | – | – | – | 1041.5 | 1007.1 | 972.74
[2], x2 = 0.8607 | – | – | – | 1010.4 | 976.31 | 942.3
[2], x2 = 0.9562 | – | – | – | 993.45 | 959.49 | 925.65

C[N+](=O)[O-] [nitromethane] + ClCCCCCl
x2 = 0
Conditions | refractive index, 298.15 K | refractive index, 308.15 K | refractive index, 318.15 K | speed of sound, 298.15 K [m/s] | speed of sound, 308.15 K [m/s] | speed of sound, 318.15 K [m/s]
[1] | 1.37955 | 1.37482 | 1.37001 | – | – | –
[2] | – | – | – | 1321.5 | 1281.9 | 1242.5

C[N+](=O)[O-] [nitromethane] + ClCCCCl
x2 = 0
Conditions | refractive index, 298.15 K | refractive index, 308.15 K | refractive index, 318.15 K | speed of sound, 298.15 K [m/s] | speed of sound, 308.15 K [m/s] | speed of sound, 318.15 K [m/s]
[1] | 1.37948 | 1.3748 | 1.37007 | – | – | –
[2] | – | – | – | 1321.2 | 1281.8 | 1242.5

C[N+](=O)[O-] [nitromethane] + ClCCCl
Conditions | refractive index, 298.15 K | refractive index, 308.15 K | refractive index, 318.15 K | speed of sound, 298.15 K [m/s] | speed of sound, 308.15 K [m/s] | speed of sound, 318.15 K [m/s]
[1], x2 = 0 | 1.37952 | 1.37482 | 1.37009 | – | – | –
[1], x2 = 0.1132 | 1.38846 | 1.38351 | 1.37845 | – | – | –
[1], x2 = 0.2235 | 1.39669 | 1.39148 | 1.38609 | – | – | –
[1], x2 = 0.3249 | 1.40379 | 1.39839 | 1.39284 | – | – | –
[1], x2 = 0.4672 | 1.41318 | 1.40777 | 1.40213 | – | – | –
[1], x2 = 0.5586 | 1.4188 | 1.41343 | 1.40781 | – | – | –
[1], x2 = 0.6264 | 1.42279 | 1.41742 | 1.41184 | – | – | –
[1], x2 = 0.7349 | 1.42888 | 1.42345 | 1.41797 | – | – | –
[1], x2 = 0.857 | 1.43522 | 1.42981 | 1.42424 | – | – | –
[1], x2 = 0.923 | 1.43844 | 1.43304 | 1.42748 | – | – | –
[2], x2 = 0 | – | – | – | 1321.2 | 1281.8 | 1242.5
[2], x2 = 0.0878 | – | – | – | 1298.2 | 1259 | 1220.1
[2], x2 = 0.1939 | – | – | – | 1279 | 1240.3 | 1201.6
[2], x2 = 0.2938 | – | – | – | 1264 | 1225.5 | 1187
[2], x2 = 0.3998 | – | – | – | 1246.1 | 1207.7 | 1169.4
[2], x2 = 0.5028 | – | – | – | 1236 | 1197.7 | 1159.5
[2], x2 = 0.6154 | – | – | – | 1229 | 1190.8 | 1152.5
[2], x2 = 0.7207 | – | – | – | 1218.7 | 1180.5 | 1142.2
[2], x2 = 0.8326 | – | – | – | 1207.6 | 1169.3 | 1131.1
[2], x2 = 0.9404 | – | – | – | 1201.6 | 1163.3 | 1125

ClC(Cl)Cl [trichloromethane]
Conditions | refractive index, 298.15 K | refractive index, 308.15 K | refractive index, 318.15 K | speed of sound, 298.15 K [m/s] | speed of sound, 308.15 K [m/s] | speed of sound, 318.15 K [m/s]
[3] | 1.44209 | 1.43598 | 1.42986 | – | – | –
[4] | – | – | – | 984.42 | 950.45 | 916.63

ClC(Cl)Cl [trichloromethane] + C[N+](=O)[O-]
x1 = 1
Conditions | refractive index, 298.15 K | refractive index, 308.15 K | refractive index, 318.15 K | speed of sound, 298.15 K [m/s] | speed of sound, 308.15 K [m/s] | speed of sound, 318.15 K [m/s]
[1] | 1.44209 | 1.43598 | 1.42986 | – | – | –
[2] | – | – | – | 984.42 | 950.45 | 916.63
